Source: patent US11180474B2 (BRISTOL-MYERS SQUIBB COMPANY, priority 2016, dated 2021)

Key:
human TLR7 = molecular target: T1, human TLR7 (Homo sapiens, UniProt Q9NYK1); assay: TLR7 inhibition reporter assay (HEK-Blue cells, SEAP reporter, gardiquimod stimulation); assay type: cell-based; conditions: HEK-Blue cells overexpressing human TLR7, gardiquimod 7.5 μM
T1 construct: host or cells: HEK-Blue cells
T1 sequence (Q9NYK1 27-1049): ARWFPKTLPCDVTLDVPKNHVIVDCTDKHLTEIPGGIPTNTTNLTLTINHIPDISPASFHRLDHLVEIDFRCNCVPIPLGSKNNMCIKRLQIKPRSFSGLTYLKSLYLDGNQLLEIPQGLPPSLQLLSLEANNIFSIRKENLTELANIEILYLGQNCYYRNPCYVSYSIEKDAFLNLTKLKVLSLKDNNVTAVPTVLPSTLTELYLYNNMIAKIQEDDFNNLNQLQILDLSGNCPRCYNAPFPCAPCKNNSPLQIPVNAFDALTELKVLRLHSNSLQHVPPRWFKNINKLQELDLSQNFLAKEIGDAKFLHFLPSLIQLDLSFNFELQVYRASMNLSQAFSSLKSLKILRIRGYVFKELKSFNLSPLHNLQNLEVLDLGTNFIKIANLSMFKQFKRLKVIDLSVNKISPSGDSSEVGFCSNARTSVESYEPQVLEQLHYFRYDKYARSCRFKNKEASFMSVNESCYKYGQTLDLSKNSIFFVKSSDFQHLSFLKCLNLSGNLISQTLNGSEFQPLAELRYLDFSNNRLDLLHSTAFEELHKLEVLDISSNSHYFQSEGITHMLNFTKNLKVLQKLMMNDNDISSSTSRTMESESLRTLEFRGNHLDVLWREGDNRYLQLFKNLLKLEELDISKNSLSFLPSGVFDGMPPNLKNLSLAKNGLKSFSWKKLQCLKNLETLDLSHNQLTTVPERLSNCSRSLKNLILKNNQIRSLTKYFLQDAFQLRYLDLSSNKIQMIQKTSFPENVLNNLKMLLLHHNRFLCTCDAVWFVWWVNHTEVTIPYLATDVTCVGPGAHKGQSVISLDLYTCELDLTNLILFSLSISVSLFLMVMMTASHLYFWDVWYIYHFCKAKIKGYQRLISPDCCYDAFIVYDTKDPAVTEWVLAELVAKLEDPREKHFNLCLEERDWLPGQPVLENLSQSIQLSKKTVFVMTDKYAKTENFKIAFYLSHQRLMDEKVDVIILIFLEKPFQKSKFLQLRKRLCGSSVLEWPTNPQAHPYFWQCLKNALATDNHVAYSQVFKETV
Method in brief: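 Cells (15000/well for TLR7, 20,000 for TLR8) were treated with compounds over 0.05 nM-50 μM final. After 22 h at 37° C, 5% CO2, SEAP was measured with HEK-Blue Detection reagent; percent inhibition was taken as reduction of agonist-plus-DMSO signal relative to a known inhibitor.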

human TLR9 = molecular target: T2, human TLR9 (Homo sapiens, UniProt Q9NR96); assay: TLR9 inhibition reporter assay (HEK-Blue cells, SEAP reporter, ODN2006 stimulation); assay type: cell-based; conditions: HEK-Blue cells overexpressing human TLR9, ODN2006 5 nM
T2 construct: host or cells: HEK-Blue cells
T2 sequence (Q9NR96 26-1032): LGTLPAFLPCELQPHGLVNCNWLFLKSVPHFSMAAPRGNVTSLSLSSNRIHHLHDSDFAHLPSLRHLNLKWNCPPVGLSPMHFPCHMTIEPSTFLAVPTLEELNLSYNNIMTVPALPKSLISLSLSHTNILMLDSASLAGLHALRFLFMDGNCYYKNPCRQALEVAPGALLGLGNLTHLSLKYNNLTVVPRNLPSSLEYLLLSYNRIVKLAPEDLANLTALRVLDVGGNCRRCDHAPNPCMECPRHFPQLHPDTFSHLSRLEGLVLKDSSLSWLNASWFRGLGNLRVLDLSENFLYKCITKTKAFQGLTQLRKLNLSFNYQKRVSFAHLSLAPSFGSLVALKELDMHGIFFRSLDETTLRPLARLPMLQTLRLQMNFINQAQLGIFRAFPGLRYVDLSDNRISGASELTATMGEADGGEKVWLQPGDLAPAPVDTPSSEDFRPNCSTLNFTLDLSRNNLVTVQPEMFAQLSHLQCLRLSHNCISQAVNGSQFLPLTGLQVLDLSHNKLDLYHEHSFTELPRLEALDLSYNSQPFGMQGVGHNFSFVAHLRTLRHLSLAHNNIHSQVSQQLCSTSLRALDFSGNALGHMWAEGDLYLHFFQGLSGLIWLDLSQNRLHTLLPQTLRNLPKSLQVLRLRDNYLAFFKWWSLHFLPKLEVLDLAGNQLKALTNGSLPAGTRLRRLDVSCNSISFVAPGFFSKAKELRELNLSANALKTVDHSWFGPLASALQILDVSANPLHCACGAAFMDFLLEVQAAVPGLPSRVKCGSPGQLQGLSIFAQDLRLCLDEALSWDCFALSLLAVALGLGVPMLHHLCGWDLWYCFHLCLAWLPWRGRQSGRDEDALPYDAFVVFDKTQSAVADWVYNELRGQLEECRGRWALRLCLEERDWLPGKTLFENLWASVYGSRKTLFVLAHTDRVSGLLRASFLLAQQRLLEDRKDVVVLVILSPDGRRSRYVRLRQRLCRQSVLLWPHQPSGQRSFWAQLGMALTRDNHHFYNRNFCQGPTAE
Method in brief: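 Human TLR7/8/9 HEK-Blue reporter lines; dose range 0.05 nM–50 μM; 30 min RT preincubation; stimulus gardiquimod 7.5 μM / R848 15.9 μM / ODN2006 5 nM respectively; 22 h, 37 °C; SEAP detected colorimetrically.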

| Structure (SMILES) | IC50 (human TLR7) | IC50 (human TLR9) |
| --- | --- | --- |
| COc1ccc(-c2[nH]c3ccc(C4CCN(CC(=O)NC5CCN(C(C)C)CC5)CC4)cc3c2C(C)C)cc1OC [Example 273, 2-(4-(2-(3,4-dimethoxyphenyl)-3-isopropyl-1H-indol-5-yl)piperidin-1-yl)-N-(1-isopropylpiperidin-4-yl)acetamide] | 7 nM | 565 nM |
| COc1ccc(-c2[nH]c3ccc(C4CCN(C(=O)CN5CCC[C@H](C(=O)N(C)C(C)C)C5)CC4)cc3c2C(C)C)cc1OC [Example 288, (S)-1-(2-(4-(2-(3,4-dimethoxyphenyl)-3-isopropyl-1H-indol-5-yl)piperidin-1-yl)-2-oxoethyl)-N-isopropyl-N-methylpiperidine-3-carboxamide] | 44 nM | 633 nM |
| COc1ccc(-c2[nH]c3ccc(C4CCN(C(=O)CNCCC(C)O)CC4)cc3c2C(C)C)cc1OC (stereo not drawn) [Example 237, 1-(4-(2-(3,4-dimethoxyphenyl)-3-isopropyl-1H-indol-5-yl)piperidin-1-yl)-2-((3-hydroxybutyl)amino)ethan-1-one] | 15 nM | 1160 nM |
| COc1ccc(-c2[nH]c3ccc(C4CCN(C(=O)CN5CCC(N(C)C)CC5)CC4)cc3c2C(C)C)cc1OC [Example 244, 1-(4-(2-(3,4-dimethoxyphenyl)-3-isopropyl-1H-indol-5-yl)piperidin-1-yl)-2-(4-(dimethylamino)piperidin-1-yl)ethan-1-one] | 6 nM | 381 nM |
| COc1ccc(-c2[nH]c3ccc(C4CCN(C(=O)CO)CC4)cc3c2C(C)C)cc1OC [Example 313, 1-(4-(2-(3,4-dimethoxyphenyl)-3-isopropyl-1H-indol-5-yl)piperidin-1-yl)-2-hydroxyethanone] | 73 nM | 48300 nM |
| COc1ccc(-c2[nH]c3ccc(C4CCN(C5CCN(C6CC6)CC5)CC4)cc3c2C)cc1OC [Example 23, 5-(1′-cyclopropyl-[1,4′-bipiperidin]-4-yl)-2-(3,4-dimethoxyphenyl)-3-methyl-1H-indole] | 101 nM | 154 nM |
| COc1ccc(-c2[nH]c3ccc(C4CCN(C(=O)CN5CCC[C@@H](C(=O)N6CCC(CCO)CC6)C5)CC4)cc3c2C(C)C)cc1OC [Example 306, (R)-1-(4-(2-(3,4-dimethoxyphenyl)-3-isopropyl-1H-indol-5-yl)piperidin-1-yl)-2-(3-(4-(2-hydroxyethyl)piperidine-1-carbonyl)piperidin-1-yl)ethan-1-one] | 153 nM | 2680 nM |
| COc1ccc(-c2[nH]c3ccc(C4CCN(C(=O)CN5CCC[C@H](C(=O)N6CC[C@H](O)C6)C5)CC4)cc3c2C(C)C)cc1OC [Example 301, 1-(4-(2-(3,4-dimethoxyphenyl)-3-isopropyl-1H-indol-5-yl)piperidin-1-yl)-2-((S)-3-((S)-3-hydroxypyrrolidine-1-carbonyl)piperidin-1-yl)ethan-1-one] | 66 nM | 3120 nM |
| CCN(CC)C(=O)C1CCCN(CC(=O)N2CCC(c3ccc4[nH]c(-c5ccc(OC)c(OC)c5)c(C(C)C)c4c3)CC2)C1 (stereo not drawn) [Example 224, 1-(2-(4-(2-(3,4-dimethoxyphenyl)-3-isopropyl-1H-indol-5-yl)piperidin-1-yl)-2-oxoethyl)-N,N-diethylpiperidine-3-carboxamide] | 46 nM | 403 nM |
| COc1ccc(-c2[nH]c3ccc(C4CCN(C(=O)CN5CCC[C@@H](C(=O)N6CCN(C(C)C)CC6)C5)CC4)cc3c2C(C)C)cc1OC [Example 302, (R)-1-(4-(2-(3,4-dimethoxyphenyl)-3-isopropyl-1H-indol-5-yl)piperidin-1-yl)-2-(3-(4-isopropylpiperazine-1-carbonyl)piperidin-1-yl)ethan-1-one] | 40 nM | 564 nM |
| COc1ccc(-c2[nH]c3ccc(C4CCN(C(=O)CN5CCC[C@H](C(=O)N6CCN(CCN7CCCC7)CC6)C5)CC4)cc3c2C(C)C)cc1OC [Example 293, (S)-1-(4-(2-(3,4-dimethoxyphenyl)-3-isopropyl-1H-indol-5-yl)piperidin-1-yl)-2-(3-(4-(2-(pyrrolidin-1-yl)ethyl)piperazine-1-carbonyl)piperidin-1-yl)ethan-1-one] | 28 nM | 777 nM |
| CCC(CO)NCC(=O)N1CCC(c2ccc3[nH]c(-c4ccc(OC)c(OC)c4)c(C(C)C)c3c2)CC1 (stereo not drawn) [Example 233, 1-(4-(2-(3,4-dimethoxyphenyl)-3-isopropyl-1H-indol-5-yl)piperidin-1-yl)-2-((1-hydroxybutan-2-yl)amino)ethan-1-one] | 23 nM | 877 nM |
| COc1ccc(-c2[nH]c3ccc(C4CCN(Cc5cncn5C)CC4)cc3c2C(C)C)cc1OC [Example 258, 2-(3,4-dimethoxyphenyl)-3-isopropyl-5-(1-((1-methyl-1H-imidazol-5-yl)methyl)piperidin-4-yl)-1H-indole] | 18 nM | 1440 nM |
| COc1ccc(-c2[nH]c3ccc(C4CCN(CC(=O)NCCCO)CC4)cc3c2C(C)C)cc1OC [Example 277, 2-(4-(2-(3,4-dimethoxyphenyl)-3-isopropyl-1H-indol-5-yl)piperidin-1-yl)-N-(3-hydroxypropyl)acetamide] | 16 nM | 4980 nM |
| COc1ccc(-c2[nH]c3ccc(C4CCN(C(=O)CN5CCC[C@H](C(=O)N6CCC(CCO)CC6)C5)CC4)cc3c2C(C)C)cc1OC [Example 291, (S)-1-(4-(2-(3,4-dimethoxyphenyl)-3-isopropyl-1H-indol-5-yl)piperidin-1-yl)-2-(3-(4-(2-hydroxyethyl)piperidine-1-carbonyl)piperidin-1-yl)ethan-1-one] | 36 nM | 2310 nM |
| COc1ccc(-c2[nH]c3ccc(C4CCN(C(=O)CN5CCC[C@H](C(=O)NCC#N)C5)CC4)cc3c2C(C)C)cc1OC [Example 297, (S)—N-(cyanomethyl)-1-(2-(4-(2-(3,4-dimethoxyphenyl)-3-isopropyl-1H-indol-5-yl)piperidin-1-yl)-2-oxoethyl)piperidine-3-carboxamide] | 48 nM | 3050 nM |
| COc1ccc(-c2[nH]c3ccc(C4CCN(C(=O)CN(C)C(C)C)CC4)cc3c2C(C)C)cc1OC [Example 227, 1-(4-(2-(3,4-dimethoxyphenyl)-3-isopropyl-1H-indol-5-yl)piperidin-1-yl)-2-(isopropyl(methyl)amino) ethan-1-one] | 29 nM | 1730 nM |
| CNCC(=O)N1CCC(c2ccc3[nH]c(-c4ccc(OC)c(OC)c4)c(C(C)C)c3c2)CC1 [Example 256, 1-(4-(2-(3,4-dimethoxyphenyl)-3-isopropyl-1H-indol-5-yl)piperidin-1-yl)-2-(methylamino)ethan-1-one] | 11 nM | 2320 nM |
